Laboratory results as given in the supplement of paper PMC4932681.

Columns and labels:
BT-474 Tam1 [1] = assay: drug sensitivity score (DSS) (DSS (dimensionless)); higher = more sensitive; extreme values may be limits of the assay; conditions: 4-OH-tamoxifen in medium 1 µM; 72 h
Description: (§1)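 FIMM FO2B library drugs were tested at 5 concentrations (10,000-fold range) for 72 h, with CellTiter-Glo viability normalised to DMSO and benzethonium chloride controls. The Drug Sensitivity Score (DSS) is computed from the fitted logistic dose-response curve (area-based; 0 = inactive). Resistant lines and the 'in 1µM tamoxifen' arms were tested in 1 µM 4-OH-tamoxifen.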

BT-474 Tam2 [2] = assay: as above; conditions: 4-OH-tamoxifen in medium 1 µM; 72 h
Description: as §1

BT-474 [3] = assay: as above; conditions: 72 h
Description: as §1

MCF-7 Tam1 = assay: as above; conditions: 4-OH-tamoxifen in medium 1 µM; 72 h
Description: as §1

MCF-7 [4] = assay: as above; conditions: 72 h
Description: as §1

T-47D Tam1 [5] = assay: as above; conditions: 4-OH-tamoxifen in medium 1 µM; 72 h
Description: as §1

T-47D Tam2 [6] = assay: as above; conditions: 4-OH-tamoxifen in medium 1 µM; 72 h
Description: as §1

T-47D [7] = assay: as above; conditions: 72 h
Description: as §1

ZR-75-1 Tam1 [8] = assay: as above; conditions: 4-OH-tamoxifen in medium 1 µM; 72 h
Description: as §1

ZR-75-1 Tam2 [9] = assay: as above; conditions: 4-OH-tamoxifen in medium 1 µM; 72 h
Description: as §1

ZR-75-1 [10] = assay: as above; conditions: 72 h
Description: as §1

BT-474 Tam1 [11] = assay: relative IC50 (midpoint of fitted logistic curve, plateau may be below 50% inhibition; CellTiter-Glo viability); higher = less potent; conditions: 4-OH-tamoxifen in medium 1 µM; 72 h
Description: (§2)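 FIMM FO2B library drugs were plated at 5 concentrations spanning a 10,000-fold range in 384-well plates. Cells were incubated for 72 h at 37 °C and viability was read by CellTiter-Glo, normalised to DMSO (0% inhibition) and 100 µM benzethonium chloride (100% inhibition). IC50 values come from logistic dose-response fits (Breeze pipeline). Tamoxifen-resistant lines and the 'in 1µM tamoxifen' parental arms were tested in medium with 1 µM 4-OH-tamoxifen.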

BT-474 Tam2 [12] = assay: as above; conditions: 4-OH-tamoxifen in medium 1 µM; 72 h
Description: as §2

BT-474 [13] = assay: as above; conditions: 72 h
Description: as §2

MCF-7 [14] = assay: as above; conditions: 72 h
Description: as §2

T-47D Tam1 [15] = assay: as above; conditions: 4-OH-tamoxifen in medium 1 µM; 72 h
Description: as §2

T-47D Tam2 [16] = assay: as above; conditions: 4-OH-tamoxifen in medium 1 µM; 72 h
Description: as §2

T-47D [17] = assay: as above; conditions: 72 h
Description: as §2

ZR-75-1 [18] = assay: as above; conditions: 72 h
Description: as §2

ZR-75-1 Tam1 [19] = assay: as above; conditions: 4-OH-tamoxifen in medium 1 µM; 72 h
Description: as §2

ZR-75-1 Tam2 [20] = assay: as above; conditions: 4-OH-tamoxifen in medium 1 µM; 72 h
Description: as §2

SMILES	drug sensitivity score (BT-474 Tam1 [1])	drug sensitivity score (BT-474 Tam2 [2])	drug sensitivity score (BT-474 [3]; 4-OH-tamoxifen in medium 0 µM)	drug sensitivity score (BT-474 [3]; 4-OH-tamoxifen in medium 1 µM)	drug sensitivity score (MCF-7 Tam1)	drug sensitivity score (MCF-7 [4]; 4-OH-tamoxifen in medium 0 µM)	drug sensitivity score (MCF-7 [4]; 4-OH-tamoxifen in medium 1 µM)	drug sensitivity score (T-47D Tam1 [5])	drug sensitivity score (T-47D Tam2 [6])	drug sensitivity score (T-47D [7]; 4-OH-tamoxifen in medium 0 µM)	drug sensitivity score (T-47D [7]; 4-OH-tamoxifen in medium 1 µM)	drug sensitivity score (ZR-75-1 Tam1 [8])	drug sensitivity score (ZR-75-1 Tam2 [9])	drug sensitivity score (ZR-75-1 [10]; 4-OH-tamoxifen in medium 0 µM)	drug sensitivity score (ZR-75-1 [10]; 4-OH-tamoxifen in medium 1 µM)	relative IC50 (BT-474 Tam1 [11])	relative IC50 (BT-474 Tam2 [12])	relative IC50 (BT-474 [13]; 4-OH-tamoxifen in medium 0 µM)	relative IC50 (BT-474 [13]; 4-OH-tamoxifen in medium 1 µM)	relative IC50 (MCF-7 [14]; 4-OH-tamoxifen in medium 0 µM)	relative IC50 (MCF-7 [14]; 4-OH-tamoxifen in medium 1 µM)	relative IC50 (T-47D Tam1 [15])	relative IC50 (T-47D Tam2 [16])	relative IC50 (T-47D [17]; 4-OH-tamoxifen in medium 0 µM)	relative IC50 (T-47D [17]; 4-OH-tamoxifen in medium 1 µM)	relative IC50 (ZR-75-1 [18]; 4-OH-tamoxifen in medium 0 µM)	relative IC50 (ZR-75-1 Tam1 [19])	relative IC50 (ZR-75-1 Tam2 [20])	relative IC50 (ZR-75-1 [18]; 4-OH-tamoxifen in medium 1 µM)
CCc1cncnc1N1CCN(Cc2nc3ccc(C(F)(F)F)cc3[nH]2)CC1	3.7	2.05	1.64	2.18	0.774	1.96	2.72	2.79	1.89	2.8	0.435	0.834	1.31	0.27	1.12	3.23 µM	3.22 µM	3.3 µM	4.06 µM	2.92 µM	1.1 µM	1.57 µM	2.31 µM	1.53 µM	–	–	–	–	–
Cc1ccc(C(=O)Nc2ccc(CN3CCN(C)CC3)c(C(F)(F)F)c2)cc1C#Cc1cnc2cccnn12	1.26	0	0	1.07	0.248	0	0.178	11.6	1.72	0.62	1.21	0.0086	0.0834	0	0.047	0.406 µM	–	> 1 µM	0.458 µM	–	–	0.0432 µM	0.337 µM	–	0.391 µM	> 1 µM	–	–	–
CC(=O)OC[C@H]1O[C@@H]([S-])[C@H](OC(C)=O)[C@@H](OC(C)=O)[C@@H]1OC(C)=O.CCP(CC)CC.[Au+] [Auranofin]	5	3.68	3.43	4.22	1.48	6.78	2.93	11.5	4.19	1.36	4.22	0.421	0.324	0.254	1.38	0.853 µM	0.785 µM	0.719 µM	1.02 µM	0.561 µM	0.376 µM	0.0653 µM	0.584 µM	0.804 µM	0.223 µM	–	–	–	–
CC[C@@H]1C(=O)N(C)c2cnc(Nc3ccc(C(=O)NC4CCN(C)CC4)cc3OC)nc2N1C1CCCC1 [BI 2536]	1.24	0.933	3.73	7.89	0	3.44	10.1	3.5	4.25	3.7	0.711	1	1.18	2.89	2.08	–	–	0.0285 µM	0.0204 µM	0.109 µM	–	0.0678 µM	0.0754 µM	–	–	–	–	–	–
C=C(c1ccc(C(=O)O)cc1)c1cc2c(cc1C)C(C)(C)CCC2(C)C [Bexarotene]	0	0	0	0.345	3.15	0	0	3.44	0	0.69	0.469	0	0.973	0.367	0.925	> 10 µM	> 10 µM	> 10 µM	–	> 10 µM	> 10 µM	–	> 10 µM	–	–	–	> 10 µM	–	–
CCC/C=C/C=C/C(=O)O[C@H]1/C(=C/C(=O)OC)C[C@H]2C[C@H]([C@@H](C)O)OC(=O)C[C@H](O)C[C@@H]3C[C@H](OC(C)=O)C(C)(C)[C@](O)(C[C@@H]4C/C(=C/C(=O)OC)C[C@H](/C=C/C(C)(C)[C@]1(O)O2)O4)O3 [Bryostatin 1]	0	0	0	0	1.73	1.22	0.563	0.0014	0	0	0	1.05	0	0.213	0	> 0.1 µM	> 0.1 µM	> 0.1 µM	> 0.1 µM	–	–	–	> 0.1 µM	> 0.1 µM	> 0.1 µM	–	–	> 0.1 µM	> 0.1 µM
C#Cc1cccc(Nc2ncnc3cc(OCCOC)c(OCCOC)cc23)c1 [Erlotinib]	9.3	7.08	3.4	9.97	0.0215	0	0	3.91	5.31	0.57	0	0.136	0.0461	0	0.0315	1.37 µM	1.96 µM	1.77 µM	1.25 µM	> 10 µM	> 10 µM	1.23 µM	0.37 µM	–	> 10 µM	> 10 µM	–	–	–
COc1cc2ncnc(Nc3ccc(F)c(Cl)c3)c2cc1OCCCN1CCOCC1 [Gefitinib]	24.9	20.3	9.4	22.7	0	2.5	1.2	0	4.57	0.0062	0	1.51	1.16	0.0359	1.45	0.0654 µM	0.176 µM	1.03 µM	0.115 µM	–	4.19 µM	> 10 µM	1.41 µM	–	> 10 µM	–	–	–	–
